For 27 compounds, IC50 results are on record in patent US20260042755A1, “GPR6 INVERSE AGONISTS” (MapLight Therapeutics, Inc., priority 2022, published 2026).

One assay has as its target T1, GPR6 (Homo sapiens, UniProt P46095).
T1 construct: expressed in transfected cells; host or cells: CHO cells
Put plainly: GPR6 antagonist functional cAMP assay (LANCE Ultra cAMP TR-FRET, CHO cells stably expressing GPR6). The class given is cell-based. Put shortly: (§1)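 10,000 cells/well; KRB buffer + 0.1% BSA + 150 μM Ro 20-1724; cpd 45 min, 37 °C, 0.1% DMSO; TR-FRET cAMP, 665 nm; 4-PL fit, normalized to DMSO (0.1%) and reference (100%) → IC50.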
For orientation: Cyclic AMP is a second messenger, typically raised through Gs and lowered through Gi signalling.

The next assay addresses T2, GPR3 (Homo sapiens, UniProt P46089).
T2 construct: expressed in transfected cells; host or cells: CHO cells
Put plainly: GPR3 antagonist functional cAMP assay (LANCE Ultra cAMP TR-FRET, CHO cells stably expressing GPR3). Type of assay: cell-based. The method, boiled down: as §1

Setting [1] is: CHO cells stably expressing GPR6, cAMP assay.
[2] abbreviates: CHO cells stably expressing GPR3, cAMP assay.
Setting [3] is: procedure as described in Example 24.
Where [4] appears, read: CHO cells stably expressing GPR6, cAMP assay (Example 24).
Where [5] appears, read: CHO cells stably expressing GPR3, cAMP assay (Example 24).

A value given as a limit tells only on which side of the number the result lay.

T1 sequence (P46095 whole entry): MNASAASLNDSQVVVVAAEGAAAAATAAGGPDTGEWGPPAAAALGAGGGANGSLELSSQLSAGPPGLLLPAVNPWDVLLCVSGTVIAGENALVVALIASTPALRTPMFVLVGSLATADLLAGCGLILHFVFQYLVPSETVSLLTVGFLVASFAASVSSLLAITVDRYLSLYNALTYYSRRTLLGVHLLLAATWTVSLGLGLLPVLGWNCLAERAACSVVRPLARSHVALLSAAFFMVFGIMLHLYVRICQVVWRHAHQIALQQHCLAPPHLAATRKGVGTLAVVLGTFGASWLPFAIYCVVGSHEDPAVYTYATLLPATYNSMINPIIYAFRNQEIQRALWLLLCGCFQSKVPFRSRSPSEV
T2 sequence (P46089 whole entry, species assumed): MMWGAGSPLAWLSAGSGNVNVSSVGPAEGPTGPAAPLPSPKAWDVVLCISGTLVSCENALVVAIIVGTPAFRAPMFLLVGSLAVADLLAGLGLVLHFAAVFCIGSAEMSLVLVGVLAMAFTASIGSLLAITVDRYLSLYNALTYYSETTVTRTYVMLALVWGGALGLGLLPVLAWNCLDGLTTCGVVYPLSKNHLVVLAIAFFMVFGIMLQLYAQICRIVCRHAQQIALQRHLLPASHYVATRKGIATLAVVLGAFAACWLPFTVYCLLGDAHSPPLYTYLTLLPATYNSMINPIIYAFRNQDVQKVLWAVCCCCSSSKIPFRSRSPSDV

As a reminder, the IC50 is the point on the concentration scale where inhibition reaches its midpoint. For the compound `CC(C)(O)C(C)(O)c1cc2nc(N3CCN(Cc4ccc(F)cc4F)CC3)c(-c3cnn(C4CC4)c3)nc2cn1` (stereo not drawn) [Compound 605, 2-[3-(1-cyclopropyl-4-pyrazolyl)-2-{4-[(2,4-difluorophenyl)methyl]-1-piperazinyl}-1,4,6-triaza-7-naphthyl]-3-methyl-2,3-butanediol], the IC50 was in the range of 100 to 1000 nM on GPR6 (setting [1]) and 1000 to 30000 nM against GPR3 (setting [2]).

Turning to `CC(=O)N1CCc2nc(N3CCC(Oc4ccc(F)cc4F)CC3)c(-c3cccc(C(F)(F)F)n3)nc2C1` [Compound 50, 1-{2-[4-(2,4-difluorophenoxy)piperidin-1-yl]-3-[6-(trifluoromethyl)pyridin-2-yl]-5H,6H,7H,8H-pyrido[3,4-b]pyrazin-6-yl}ethan-1-one], the IC50 on GPR6 (setting [3]) fell in the range of 100 to 1000 nM; against GPR3 (setting [3]), 1000 to 30000 nM.

As for `COC1CCC(c2nc3c(nc2N2CCC(Oc4ccc(F)cc4F)CC2)CCN(C(C)=O)C3)C1` (stereo not drawn) [Compound 279, 1-{2-[4-(2,4-difluorophenoxy)piperidin-1-yl]-3-(3-methoxycyclopentyl)-5H,6H,7H,8H-pyrido[3,4-b]pyrazin-6-yl}ethan-1-one], the half-maximal inhibitory concentration (IC50) against GPR6 (procedure of Example 24) and against GPR3 (procedure of Example 24) was 1000 to 30000 nM in each case.

Regarding `CC(=O)N1CCc2nc(N3CCC(Oc4ccc(F)cc4F)CC3)c(-c3ccnc(C)n3)nc2C1` [Compound 435, 1-{2-[4-(2,4-difluorophenoxy)piperidin-1-yl]-3-(2-methylpyrimidin-4-yl)-5H,6H,7H,8H-pyrido[3,4-b]pyrazin-6-yl}ethan-1-one], the IC50 against GPR6 (setting [4]) lay in the range of 100 to 1000 nM; on GPR3 (setting [5]), 1000 to 30000 nM.

For `O=C(CO)N1CCc2nc(N3CCC(Oc4ccc(F)cc4F)CC3)c(-c3cn[nH]c3)nc2C1` [Compound 179, 1-{2-[4-(2,4-difluorophenoxy)piperidin-1-yl]-3-(1H-pyrazol-4-yl)-5H,6H,7H,8H-pyrido[3,4-b]pyrazin-6-yl}-2-hydroxyethan-1-one], the IC50 is less than 100 nM against GPR6 (setting [4]) and 1000 to 30000 nM against GPR3 (setting [5]).

With `CCn1cc(-c2nc3cc(C(C)(O)C(C)(C)O)ncc3nc2N2CCC(Oc3ccc(F)cc3F)CC2)cn1` (single isomer, unassigned) [Compound 741], the IC50 on GPR6 (procedure of Example 24) lay in the range of 100 to 1000 nM; against GPR3 (procedure of Example 24), 1000 to 30000 nM.

As to `CC(=O)N1CCc2nc(N3CCN(Cc4ccc(C(F)(F)F)cc4)CC3)c(-c3cnn(C)c3)nc2C1` [Compound 384, 1-[3-(1-methyl-1H-pyrazol-4-yl)-2-(4-{[4-(trifluoromethyl)phenyl]methyl}piperazin-1-yl)-5H,6H,7H,8H-pyrido[3,4-b]pyrazin-6-yl]ethan-1-one], the IC50 on GPR6 (setting [4]) and against GPR3 (setting [5]) was 1000 to 30000 nM throughout.

Consider `Cn1cc(-c2nc3cnccc3nc2N2CCc3c(cnn3-c3ccc(F)cc3F)C2)cn1` [Compound 788, 1-(2,4-difluorophenyl)-5-[3-(1-methyl-4-pyrazolyl)-1,4,6-triaza-2-naphthyl]-4,5,6,7-tetrahydro-1H-1,2,5-triazaindene], for which the IC50 against GPR6 (procedure of Example 24) and against GPR3 (procedure of Example 24) was no less than 30000 nM throughout.

On to `CN(C)C(=O)N1CCc2nc(N3CCC(Oc4ccc(F)cc4F)CC3)c(-c3cn[nH]c3)nc2C1` [Compound 187, 2-[4-(2,4-difluorophenoxy)piperidin-1-yl]-N,N-dimethyl-3-(1H-pyrazol-4-yl)-5H,6H,7H,8H-pyrido[3,4-b]pyrazine-6-carboxamide], for which the IC50 on GPR6 (setting [4]) was less than 100 nM; against GPR3 (setting [5]), 1000 to 30000 nM.

For the compound `Cn1cc(-c2nc3cnccc3nc2N2CC(Oc3ccc(F)cc3F)C2)cn1` [Compound 327, 4-{2-[3-(2,4-difluorophenoxy)azetidin-1-yl]pyrido[3,4-b]pyrazin-3-yl}-1-methyl-1H-pyrazole], the IC50 at GPR6 (procedure of Example 24) and on GPR3 (procedure of Example 24) was 1000 to 30000 nM in each case.

Take `CC(=O)N1CCc2nc(N3CCC(Oc4ccc(F)cc4)CC3)c(-c3cnn(C)c3)nc2C1` [Compound 421, 1-{2-[4-(4-fluorophenoxy)piperidin-1-yl]-3-(1-methyl-1H-pyrazol-4-yl)-5H,6H,7H,8H-pyrido[3,4-b]pyrazin-6-yl}ethan-1-one]: the IC50 against GPR6 (setting [4]) and against GPR3 (setting [5]) was 1000 to 30000 nM in each case.

As for `CN1CC(c2cc3nc(N4CCC(Oc5ccc(F)cc5F)CC4)c(-c4cnn(C)c4)nc3cn2)OC1=O` (stereo not drawn) [Compound 482, 5-(2-(4-(2,4-difluorophenoxy)piperidin-1-yl)-3-(1-methyl-1H-pyrazol-4-yl)pyrido[3,4-b]pyrazin-7-yl)-3-methyloxazolidin-2-one], the IC50 was in the range of 100 to 1000 nM against GPR6 (setting [4]) and 1000 to 30000 nM against GPR3 (setting [5]).

For the compound `CC(=O)N1CCc2nc(N3CCC(Oc4ccc(F)cc4F)CC3)c(-c3ccnc(N)n3)nc2C1` [Compound 475, 1-[3-(2-aminopyrimidin-4-yl)-2-[4-(2,4-difluorophenoxy)piperidin-1-yl]-5H,6H,7H,8H-pyrido[3,4-b]pyrazin-6-yl]ethan-1-one], the figures for the IC50 on GPR6 (setting [4]) and against GPR3 (setting [5]) were less than 100 nM and 1000 to 30000 nM, respectively.

For `COc1ccc(CN2CCN(c3nc4c(nc3-c3cnn(C)c3)CN(C(C)=O)CC4)CC2)cc1F` [Compound 319, 1-(2-{4-[(3-fluoro-4-methoxyphenyl)methyl]piperazin-1-yl}-3-(1-methyl-1H-pyrazol-4-yl)-5H,6H,7H,8H-pyrido[3,4-b]pyrazin-6-yl)ethan-1-one], the IC50 at GPR6 (procedure of Example 24) and against GPR3 (procedure of Example 24) was 1000 to 30000 nM throughout.

Take `CC(C)(O)C(=O)N1CCc2nc(N3CCC(Oc4ccc(F)cc4F)CC3)c(-c3ccc(F)c(N)n3)nc2C1` [Compound 639, 1-{3-(6-amino-5-fluoro-2-pyridyl)-2-[4-(2,4-difluorophenoxy)-1-piperidyl]-5,6,7,8-tetrahydro-1,4,6-triaza-6-naphthyl}-2-hydroxy-2-methyl-1-propanone]: the IC50 on GPR6 (procedure of Example 24) and against GPR3 (procedure of Example 24) was 100 to 1000 nM in each case.

For `CC(=O)N1CCc2nc(N3CCC(Oc4ccc(F)cc4F)CC3)c(-c3cn[nH]c3F)nc2C1` [Compound 135, 1-(2-(4-(2,4-difluorophenoxy)piperidin-1-yl)-3-(5-fluoro-1H-pyrazol-4-yl)-7,8-dihydropyrido[3,4-b]pyrazin-6(5H)-yl)ethanone], the values for the IC50 against GPR6 (setting [4]) and against GPR3 (setting [5]) were 100 to 1000 nM and 1000 to 30000 nM, respectively.

For the compound `CC(C)(O)C(O)c1cc2nc(-c3cnn(CF)c3)c(N3CCC(=Cc4ccc(F)cc4F)CC3)nc2cn1` (single isomer, unassigned) [Compound 771], the 50% inhibitory concentration (IC50) against GPR6 (procedure of Example 24) and at GPR3 (procedure of Example 24) was 100 to 1000 nM in each case.

Regarding `CCn1cc(-c2nc3c(nc2N2CCC(Oc4cc(Cl)ccc4Cl)CC2)CCN(C[C@@H](O)CO)C3)cn1` (single isomer, unassigned) [Compound 408], the results for the IC50 on GPR6 (setting [4]) and against GPR3 (setting [5]) were 100 to 1000 nM and 1000 to 30000 nM, respectively.

In the case of `CC(C)(O)[C@H](O)c1cc2nc(N3CCN(Cc4ccc(F)cc4F)CC3)c(-c3cnn(C4CC4)c3)nc2cn1` (single isomer, unassigned) [Compound 576], the values for the IC50 at GPR6 (setting [1]) and against GPR3 (setting [2]) were 100 to 1000 nM and 1000 to 30000 nM, respectively.

For the compound `CC(=O)N1CCc2nc(N3CCC(C(C)c4ccc(F)cc4F)CC3)c(-c3cnn(C)c3)nc2C1` (stereo not drawn) [Compound 790, 1-(2-{4-[1-(2,4-difluorophenyl)ethyl]-1-piperidyl}-3-(1-methyl-4-pyrazolyl)-5,6,7,8-tetrahydro-1,4,6-triaza-6-naphthyl)-1-ethanone], the IC50 was in the range of 100 to 1000 nM against GPR6 (procedure of Example 24) and 1000 to 30000 nM at GPR3 (procedure of Example 24).

Regarding `CC(=O)N1CCc2nc(N3CCN(Cc4c(F)ccc(F)c4F)CC3)c(-c3cnn(C)c3)nc2C1` [Compound 354, 1-[3-(1-methyl-1H-pyrazol-4-yl)-2-{4-[(2,3,6-trifluorophenyl)methyl]piperazin-1-yl}-5H,6H,7H,8H-pyrido[3,4-b]pyrazin-6-yl]ethan-1-one], the IC50 against GPR6 (procedure of Example 24) and against GPR3 (procedure of Example 24) was 1000 to 30000 nM each time.

Turning to `CC(=O)N1CCc2nc(N3CCC(Oc4ccc(F)cc4F)CC3)c(-c3nccs3)nc2C1` [Compound 75, 1-{2-[4-(2,4-difluorophenoxy)piperidin-1-yl]-3-(1,3-thiazol-2-yl)-5H,6H,7H,8H-pyrido[3,4-b]pyrazin-6-yl}ethan-1-one], the IC50 at GPR6 (setting [4]) and against GPR3 (setting [5]) was 1000 to 30000 nM in each case.

On to `C=CC(=O)N1CCc2nc(N3CCC(Oc4ccc(F)cc4F)CC3)c(-c3ccc(F)c(N)n3)nc2C1` [Compound 626, 1-{3-(6-amino-5-fluoro-2-pyridyl)-2-[4-(2,4-difluorophenoxy)-1-piperidyl]-5,6,7,8-tetrahydro-1,4,6-triaza-6-naphthyl}-2-propen-1-one], for which the IC50 was less than 100 nM at GPR6 (procedure of Example 24) and 1000 to 30000 nM against GPR3 (procedure of Example 24).

With `COC[C@H]1C[C@@H]1c1nc2c(nc1N1CCC(Oc3ccc(F)cc3F)CC1)CCN(C(C)=O)C2` [Compound 546, 1-{3-[(1S,2S)-2-(methoxymethyl)cyclopropyl]-2-[4-(2,4-difluorophenoxy)-1-piperidyl]-5,6,7,8-tetrahydro-1,4,6-triaza-6-naphthyl}-1-ethanone], the IC50 is less than 100 nM at GPR6 (setting [1]) and 1000 to 30000 nM at GPR3 (setting [2]).

Consider `CC(=O)N1CCc2nc(N3CCC(Oc4ccccc4F)C3)c(-c3cnn(C)c3)nc2C1` (stereo not drawn) [Compound 340, 1-{2-[3-(2-fluorophenoxy)pyrrolidin-1-yl]-3-(1-methyl-1H-pyrazol-4-yl)-5H,6H,7H,8H-pyrido[3,4-b]pyrazin-6-yl}ethan-1-one], for which the IC50 at GPR6 (procedure of Example 24) is 1000 to 30000 nM; at GPR3 (procedure of Example 24) it was no less than 30000 nM.

As to `CC(=O)N1CCc2nc(N3CCC(Oc4c(F)ccc(F)c4F)CC3)c(-c3cnn(C)c3)nc2C1` [Compound 455, 1-[3-(1-methyl-1H-pyrazol-4-yl)-2-[4-(2,3,6-trifluorophenoxy)piperidin-1-yl]-5H,6H,7H,8H-pyrido[3,4-b]pyrazin-6-yl]ethan-1-one], the IC50 on GPR6 (setting [4]) and against GPR3 (setting [5]) was 1000 to 30000 nM in each case.

Consider `CC(C)(O)[C@@H](O)c1cc2nc(N3CCN(Cc4ccccc4F)CC3)c(-c3cnn(C(F)F)c3)nc2cn1` (single isomer, unassigned) [Compound 613], for which the values for the concentration for half-maximal inhibition (IC50) on GPR6 (procedure of Example 24) and on GPR3 (procedure of Example 24) were 100 to 1000 nM and 1000 to 30000 nM, respectively.
